Measurements: patent publication US12138256B2, “Treatment of cardiopulmonary disorders” (Bayer Aktiengesellschaft, priority 2021, dated 2024)
Where “and” joins values, the source holds several entries; their conditions need not be identical. Equal entries are not always repeated.

Key:
[1] = test system: isolated Langendorff-perfused rat heart; assay: Isolated perfused heart according to Langendorff: perfusion pressure and wash-out score (C-1.2); conditions: 100 nmol/l; for Perfusion pressure (%) (timepoint at 20 min) Mean: isolated Langendorff-perfused rat heart; for Perfusion pressure (%) (timepoint at 90 min) Mean: wash-out phase
Method: Male Wistar rats (strain HsdCpb:WU) with a body weight of 200-250 g were anaesthetized with Narcoren® (100 mg/kg). The thorax was opened and the heart was then exposed, excised and connected to a Langendorff apparatus by placing a cannula into the aorta. The heart was perfused retrogradely at 9 ml/min at constant flow with a Krebs-Henseleit buffer solution (gassed with 95% O2 and 5% CO2, pH 7.4, 35° C.; composition in mmol/l: NaCl 118; KCl 3; NaHCO3 22; KH2PO4 1.2; MgSO4 1.2; CaCl2 1.8; Glucose 10; Na pyruvate 2). A pressure transducer registered the perfusion pressure in the perfusion system. The left ventricular pressure (LVP) was measured using a second pressure transducer connected to a water-filled balloon which was inserted into the left ventricle via the left atrium. The end diastolic pressure was initially set to 8 mm Hg by adjusting the volume of the balloon. The hearts were spontaneously beating. The signals from the pressure transducer were amplified, registered by a personal computer (Powerlab Chart software, ADInstruments).
Then the hearts were perfused for a further 120 min without the test substance (wash-out phase). The reversibility of the effect (wash-out score) was calculated as a percentage of the PP recovery after 60 min of washout related to the maximum drop of PP induced by the test compound. The wash-out score obtained in this manner was taken as a measure for the residence time of the test substance at the site of action.

[2] = test system: thromboxane analog U46619 induced PAH in minipigs; assay: Haemodynamics (PAP, BP) in the anesthetized thromboxane challenged PAH minipig after inhaled (nebulized) application (C-2.1); format: in vivo, Göttingen minipig
Method: Experiments were carried out in anesthetized Göttingen minipigs, anesthetized rats and conscious, telemetrically instrumented dogs. Acute pulmonary hypertension was induced for example by infusion of a thromboxane A2 analogon, by acute hypoxia treatment or hypoxia treatment over a number of weeks and/or by administration of monocrotaline. Test substances were applied via nebulization using the Nebutec® or Aeroneb® Pro nebulizer system, and/or by means of powder and/or solution applicators for experimental intratracheal administration (Liquid MicroSprayer®, Dry Powder Insufflator™, MicroSprayer®, Penn-Century Inc., Wyndmoor, PA, USA) or after solid nebulization inserted into the inspiration arm of the ventilation. Compounds were employed as solids or solutions depending on the molecular structure and the technical possibility depending on the experiment. The haemodynamic signals were recorded and evaluated by means of pressure transducers/amplifiers (Combitransducer B. Braun, Melsungen, Germany or CardioMEMS Inc., Atlanta, GA, USA) and Ponemah® or CardioMems® as data aquisition software. After long-term experiments (for example monocrotaline rat), it is also possible to carry out a histological evaluation.
Healthy Gottingen Minipigs® Ellegaard (Ellegaard, Denmark) of both sexes and having a weight of 2-6 kg were used. The animals were sedated by i.m. administration of about 25 mg/kg ketamine and about 10 mg/kg azaperone. Anaesthesia was initiated by i.v. administration of about 2 mg/kg ketamine and about 0.3 mg/kg midazolam. Maintenance of anaesthesia was by i.v. administration of about 7.5-30 mg/kg/h ketamine and about 1-4 mg/kg/h midazolam (rate of infusion 1-4 ml/kg/h) and about 150 μg/kg/h pancuronium bromide (for example Pancuronium-Actavis). After intubation, the animals were ventilated by the ventilator at a constant respiratory volume (10-12 ml/kg, 35 breaths/min; Avea®, Viasys Healthcare, USA, or Engstrom Carestation, GE Healthcare, Freiburg, Germany) such that an end-tidal CO2 concentration of about 5% was achieved. Ventilation was performed with room air, enriched with about 40% oxygen (normoxia). For the measurement of the haemodynamic parameters such as pulmonary arterial pressure (PAP), blood pressure (BP) and heart rate (HR), catheters were inserted into the carotid artery to measure the blood pressure, and a Swan-Ganz® catheter was introduced in a flow-directed manner via the jugular vein into the pulmonary artery. The haemodynamic signals were recorded and evaluated by means of pressure transducers (Combitransducer, B. Braun, Melsungen, Germany)/amplifiers and Ponemah® as data aquisition software.
After the instruments have been placed into the animals, continuous infusion of a thromboxane A2 analog was initiated to increase the pulmonary arterial pressure. […] D0400, or Cayman Chemical Company, cat. no. 16440), dissolved in physiological saline, were infused to achieve an increase of the mean pulmonary arterial pressure to values of over 25 mmHg. 30 minutes after the start of the infusion, a plateau was reached, and the experiment was started.
The test substances were administered as i.v. infusion or by inhalation. For the preparation of the solution for inhalation, the following procedure was adopted: For an animal having a weight of 4 kg, to prepare the stock solution (300 μg/kg), 1.2 mg of the test compound were weighed out and dissolved in a total volume of 3 ml (1% DMSO, 99% 0.2% strength citric acid solution, 1 N aqueous sodium hydroxide solution to adjust the pH to 8). The solution was then diluted to the concentration employed using 0.2% strength citric acid which had been adjusted to pH 8 beforehand with aqueous sodium hydroxide solution. In each test, 3 ml of the solution of test compound per 4 kg animal were nebulized in the inhalation arm of the respiratory circuit using the Aeroneb® Pro nebulizer system. The mean nebulization time was about 7 min from the start of the nebulization.

[3] = Particle size distribution by laser diffraction with dry dispersion; format: physicochemical; conditions: after micronization, dry measurement (3 or 4 bar)
Method: All measurements cited in the above tables were obtained by laser diffraction with dry dispersion using compressed air. Measuring in aqueous suspension with surfactants may lead to smaller particle sizes (×90 up to 1 μm smaller).
The particle size analysis data are usually reported as cumulative undersized distribution by volume. The symbol x is used to denote the particle size, which is defined as diameter of a volume equivalent sphere. Most common characteristic values are calculated from the particle size distribution by interpolation. Frequently used are the particle sizes at the undersize values of 10%, 50% and 90% of the volume distribution, denoted as x10, x50 and x90. x50 is also known as median particle size. The symbol d is widely used to designate the particle size, thus the symbol x may be replaced by the symbol d.

[4] = test system: thromboxane analog U46619 induced PAH in minipigs; assay: PAH minipig model: comparison with and on top of standard of care (bosentan, sildenafil, riociguat); format: in vivo, Göttingen minipig
Excerpt: Efficacy of inhaled comparative example 11 was compared with systemically applied bosentan, sildenafil and riociguat (see FIG. 53a) in the PAH minipig model. […] Therefore inhaled application of comparative example 11 offers clear benefits as systemic effects are avoided, compared to standard of care.

[5] = inhaled 3μg/kg, 0 min vs. start inhalation
[6] = inhaled 3μg/kg, 10 min vs. start inhalation
[7] = inhaled 3μg/kg, 20 min vs. start inhalation
[8] = inhaled 3μg/kg, 30 min vs. start inhalation
[9] = inhaled 3μg/kg, 40 min vs. start inhalation
[10] = inhaled 3μg/kg, 50 min vs. start inhalation
[11] = inhaled 3μg/kg, 60 min vs. start inhalation
[12] = inhaled 3μg/kg, 70 min vs. start inhalation
[13] = inhaled 3μg/kg, 80 min vs. start inhalation
[14] = inhaled 3μg/kg, 90 min vs. start inhalation
[15] = inhaled 3μg/kg, −5 min vs. start inhalation
[16] = inhaled 100 μg/kg, 0 min vs. start inhalation
[17] = inhaled 100 μg/kg, 10 min vs. start inhalation
[18] = inhaled 100 μg/kg, 20 min vs. start inhalation
[19] = inhaled 100 μg/kg, 30 min vs. start inhalation
[20] = inhaled 100 μg/kg, −5 min vs. start inhalation
[21] = Sildenafil 300 μg/kg/h systemically applied, % change per animal

Molecule: O=C(O)CCCCN(CCc1ccccc1OCc1ccc(CCc2ccccc2)cc1)Cc1ccc(C(=O)O)cc1 [Cinaciguat (comparative example 1)]
- Wash-out score (%) after 60 min [1]: 29.5%
- Perfusion pressure (%) (timepoint at 20 min) Mean [1]: 62.1%
- Perfusion pressure (%) (timepoint at 90 min) Mean [1]: 69.3%
- % changes in BP vs baseline [2, 5]: 100% and 99%
- % changes in PAP vs baseline [2, 5]: 99%
- % changes in BP vs baseline [2, 6]: 91% and 89%
- % changes in PAP vs baseline [2, 6]: 101% and 100%
- % changes in BP vs baseline [2, 7]: 76% and 82%
- % changes in PAP vs baseline [2, 7]: 99% and 98%
- % changes in BP vs baseline [2, 8]: 74% and 86%
- % changes in PAP vs baseline [2, 8]: 98%
- % changes in BP vs baseline [2, 9]: 73% and 89%
- % changes in PAP vs baseline [2, 9]: 97% and 98%
- % changes in BP vs baseline [2, 10]: 82% and 94%
- % changes in PAP vs baseline [2, 10]: 97% and 98%
- % changes in BP vs baseline [2, 11]: 88% and 94%
- % changes in PAP vs baseline [2, 11]: 97% and 99%
- % changes in BP vs baseline [2, 12]: 100% and 99%
- % changes in PAP vs baseline [2, 12]: 97% and 100%
- % changes in BP vs baseline [2, 13]: 103% and 100%
- % changes in PAP vs baseline [2, 13]: 95% and 98%
- % changes in BP vs baseline [2, 14]: 105% and 102%
- % changes in PAP vs baseline [2, 14]: 95% and 99%
- % changes in BP vs baseline [2, 15]: 100%
- % changes in PAP vs baseline [2, 15]: 100%
- % changes in PAP vs baseline ([2]; inhaled 10 μg/kg, 0 min vs. start inhalation): 100% and 101%
- % changes in PAP vs baseline ([2]; inhaled 10 μg/kg, 10 min vs. start inhalation): 100%
- % changes in PAP vs baseline ([2]; inhaled 10 μg/kg, 20 min vs. start inhalation): 96% and 100%
- % changes in PAP vs baseline ([2]; inhaled 10 μg/kg, 30 min vs. start inhalation): 94% and 100%
- % changes in PAP vs baseline ([2]; inhaled 10 μg/kg, 40 min vs. start inhalation): 95% and 98%
- % changes in PAP vs baseline ([2]; inhaled 10 μg/kg, 50 min vs. start inhalation): 94% and 96%
- % changes in PAP vs baseline ([2]; inhaled 10 μg/kg, 60 min vs. start inhalation): 95% and 94%
- % changes in PAP vs baseline ([2]; inhaled 10 μg/kg, 70 min vs. start inhalation): 93% and 94%
- % changes in PAP vs baseline ([2]; inhaled 10 μg/kg, 80 min vs. start inhalation): 94% and 92%
- % changes in PAP vs baseline ([2]; inhaled 10 μg/kg, 90 min vs. start inhalation): 93% and 89%
- % changes in PAP vs baseline ([2]; inhaled 10 μg/kg, −5 min vs. start inhalation): 100%

Molecule: COC(=O)N(C)c1c(N)nc(-c2nn(Cc3ccccc3F)c3ncccc23)nc1N [Riociguat (comparative example 2)]
- Wash-out score (%) after 60 min [1]: 98.0%
- Perfusion pressure (%) (timepoint at 20 min) Mean [1]: 55.4%
- Perfusion pressure (%) (timepoint at 90 min) Mean [1]: 99.9%
- % changes in BP vs baseline [2, 16]: 100% and 102%
- % changes in PAP vs baseline [2, 16]: 99%
- % changes in BP vs baseline [2, 17]: 91% and 86%
- % changes in PAP vs baseline [2, 17]: 95% and 92%
- % changes in BP vs baseline [2, 18]: 91% and 85%
- % changes in PAP vs baseline [2, 18]: 94% and 90%
- % changes in BP vs baseline [2, 19]: 94%
- % changes in PAP vs baseline [2, 19]: 94% and 90%
- % changes in BP vs baseline [2, 20]: 100%
- % changes in PAP vs baseline [2, 20]: 99% and 101%

Molecule: O.O=C(O)c1ccc(CCN(CCc2ccccc2OCc2ccc(-c3ccc(C(F)(F)F)cc3)cc2Cl)[C@H]2CCCc3nc(C(=O)O)ccc32)cc1 [example 8b]
- PSD X10 [3]: X10: 0.7 μm,
- PSD X50 [3]: X50: 1.9 μm,
- PSD X90 [3]: X90: 5.0 μm

Molecule: O.O=C(O)c1ccc(CCN(CCc2ccccc2OCc2ccc(-c3ccc(C(F)(F)F)cc3)cc2Cl)[C@H]2CCCc3nc(C(=O)O)ccc32)cc1 [example 8e]
- PSD X10 [3]: X10: 0.7 μm,
- PSD X50 [3]: X50: 2.1 μm,
- PSD X90 [3]: X90: 6.1 μm

Molecule: CCCc1nn(C)c2c(=O)[nH]c(-c3cc(S(=O)(=O)N4CCN(C)CC4)ccc3OCC)nc12 [sildenafil, reference compound]
- BP decrease % [4, 21]: −10.6% and −6.1% and −14.5%
- PAP decrease % [4, 21]: −15.3% and −34.3% and −16.1%
- effects on PAP and BP ([4]; bosentan 1 mg/kg, sildenafil 300 μg/kg/h, riociguat 3 μg/kg/h systemically, comparative example 11 30 and 100 μg/kg inhaled): decreases in both PAP and BP

Molecule: Ethyl 5-{[2-(2-{[3-chloro-4′-(trifluoromethyl)biphenyl-4-yl]methoxy}phenyl)ethyl]amino}-5,6,7,8-tetrahydroquinoline-2-carboxylate [example 8a]
- PSD X10 [3]: X10: 0.4 μm,
- PSD X50 [3]: X50: 1.7 μm,
- PSD X90 [3]: X90: 4.2 μm
